Measured values published in US20210347794A1, “Phosphate Derivatives of Indole Compounds and Their Use” (ARIAGEN, INC., priority 2018, published 2021).

Columns and labels:
[1] = In vivo pharmacokinetic study in dogs, oral dose of ARI-158; design: species or system male beagle dogs; settings: for Plasma Concentration / AUC(0-inf) / AUC(0-t) / Cmax / Tmax / half-life / concentration at 0.083 h / concentration at 0.25 h / concentration at 0.5 h / concentration at 1 h / concentration at 2 h / concentration at 4 h / concentration at 6 h / concentration at 8 h: dogs, 10 mg/kg oral dose of ARI-158; for AUC(0-inf) / AUC(0-t) / Cmax / Tmax / half-life / concentration at 0.083 h / concentration at 0.25 h / concentration at 0.5 h / concentration at 1 h / concentration at 2 h / concentration at 4 h / concentration at 6 h / concentration at 8 h: male, beagle, dog, plasma, po, 10 mg/kg
Protocol: This example describes pharmacokinetic (PK) studies of ARI-158 and ARI-160 in dogs and rats, respectively. In the present studies, the test compounds were given to groups of male beagle dogs and rats (N=3 in each group) intravenously (IV) at 2 mg/kg or orally (PO) at 10 mg/kg. IV doses were formulated in DMSO, while PO doses were formulated in a 50/50 mixture of PEG400 and Tween 80. Blood samples were collected at pre-dose and over a period of 24 hours post-dose. Plasma concentrations of the indolo-phosphoramidate compounds were determined by HPLC.

[2] = system: EMT-6 cancer cells; test: Anti-tumor activity in EMT-6 syngeneic mouse tumor model; assay type: in vivo; settings: 80 mpk
Protocol: This example describes in vivo studies that evaluated the anti-cancer efficacy of ARI-158 and ARI-160 in syngeneic mouse tumor models. Mice implanted subcutaneously with EMT-6 cancer cells were treated with ARI-158 and ARI-160, or vehicle controls, as described below.
A monolayer culture of tumor cells was maintained in vitro in DMEM or RPMI1640 medium supplemented with 10% fetal bovine serum at 37° C. in an atmosphere of 5% CO2. Cells in exponential growth phase were harvested and quantitated by cell counter before tumor inoculation.
EMT-6 syngeneic mouse tumor models were generated by inoculating female BALB/C 6 mice with EMT-6 cancer cells at their right lower flank.
Each mouse was inoculated subcutaneously with tumor cells in 0.1 mL of PBS. Treatments were started when the mean tumor size reached approximately 80-120 mm^3 (around 100 mm^3). The administration of the test compounds and the animal number in each study group are shown in the study design. The date of tumor cell inoculation was denoted as day 0.
ARI-158 and ARI-160 were dissolved in DMSO at the final concentration of 26.7 mg/ml and stored at room temperature.
Randomization of animals was started when the mean tumor size reached approximately 90 mm^3 to form the mouse study groups. The randomization was performed based on “Matched distribution” method using the multi-task method (StudyDirector™ software, version 3.1.399.19)/randomized block design. […]
Tumor volumes were measured twice per week in two dimensions using a caliper, and the volume was expressed in mm^3 using the formula: […]
where V is tumor volume, L is tumor length (the longest tumor dimension) and W is tumor width (the longest tumor dimension perpendicular to L). Dosing as well as tumor and body weight measurements was conducted in a Laminar Flow Cabinet. The body weights and tumor volumes were measured by using StudyDirector™ software (version 3.1.399.19).
Tumor growth inhibition percentage (TGI %) is an indicator for antitumor activity of a drug compound, and expressed as: […]
where T and C are the mean tumor volume (or weight) of the treated and control groups, respectively, on a given day. Statistical analysis of the difference in mean tumor volume (MTV) among the groups was conducted using the data collected on the day when the MTV of the vehicle group reached the humane endpoints, so that TGI could be derived for all or most mice enrolled in the study.

Compound: CCC(=O)c1csc(C(=O)c2cn(P(=O)([O-])[O-])c3cc(F)ccc23)n1.[Na+].[Na+] [ARI-158]
- Plasma Concentration ([1]; time 0 h, Dog 10): BLQ
- Plasma Concentration ([1]; time 0 h, Dog 11): BLQ
- Plasma Concentration ([1]; time 0 h, Dog 12): BLQ
- Plasma Concentration ([1]; time 8 h, Dog 11): BLQ
- Plasma Concentration ([1]; time 24 h, Dog 10): BLQ
- Plasma Concentration ([1]; time 24 h, Dog 11): BLQ
- Plasma Concentration ([1]; time 24 h, Dog 12): BLQ
- AUC(0-inf) ([1]; Dog 10): 1020 ng·h/mL
- AUC(0-t) ([1]; Dog 10): 1020 ng·h/mL
- Cmax ([1]; Dog 10): 786 ng/mL
- Tmax ([1]; Dog 10): 30 min
- half-life ([1]; Dog 10): 82.2 min
- AUC(0-inf) ([1]; Dog 11): 677 ng·h/mL
- AUC(0-t) ([1]; Dog 11): 675 ng·h/mL
- Cmax ([1]; Dog 11): 561 ng/mL
- Tmax ([1]; Dog 11): 30 min
- half-life ([1]; Dog 11): 39.2 min
- AUC(0-inf) ([1]; Dog 12): 676 ng·h/mL
- AUC(0-t) ([1]; Dog 12): 669 ng·h/mL
- Cmax ([1]; Dog 12): 275 ng/mL
- Tmax ([1]; Dog 12): 60 min
- half-life ([1]; Dog 12): 61.2 min
- AUC(0-inf) ([1]; Mean): 791 ng·h/mL
- AUC(0-t) ([1]; Mean): 787 ng·h/mL
- Cmax ([1]; Mean): 541 ng/mL
- Tmax ([1]; Mean): 40 min
- half-life ([1]; Mean): 60.6 min
- concentration at 0.083 h ([1]; Dog 10): 153 ng/mL
- concentration at 0.083 h ([1]; Dog 11): 149 ng/mL
- concentration at 0.083 h ([1]; Dog 12): 14.3 ng/mL
- concentration at 0.083 h ([1]; Mean): 105 ng/mL
- concentration at 0.25 h ([1]; Dog 10): 438 ng/mL
- concentration at 0.25 h ([1]; Dog 11): 414 ng/mL
- concentration at 0.25 h ([1]; Dog 12): 87.3 ng/mL
- concentration at 0.25 h ([1]; Mean): 313 ng/mL
- concentration at 0.5 h ([1]; Dog 10): 786 ng/mL
- concentration at 0.5 h ([1]; Dog 11): 561 ng/mL
- concentration at 0.5 h ([1]; Dog 12): 178 ng/mL
- concentration at 0.5 h ([1]; Mean): 508 ng/mL
- concentration at 1 h ([1]; Dog 10): 677 ng/mL
- concentration at 1 h ([1]; Dog 11): 311 ng/mL
- concentration at 1 h ([1]; Dog 12): 275 ng/mL
- concentration at 1 h ([1]; Mean): 421 ng/mL
- concentration at 2 h ([1]; Dog 10): 128 ng/mL
- concentration at 2 h ([1]; Dog 11): 102 ng/mL
- concentration at 2 h ([1]; Dog 12): 158 ng/mL
- concentration at 2 h ([1]; Mean): 129 ng/mL
- concentration at 4 h ([1]; Dog 10): 11.2 ng/mL
- concentration at 4 h ([1]; Dog 11): 14.4 ng/mL
- concentration at 4 h ([1]; Dog 12): 69.8 ng/mL
- concentration at 4 h ([1]; Mean): 31.8 ng/mL
- concentration at 6 h ([1]; Dog 10): 3.28 ng/mL
- concentration at 6 h ([1]; Dog 11): 1.47 ng/mL
- concentration at 6 h ([1]; Dog 12): 14.1 ng/mL
- concentration at 6 h ([1]; Mean): 6.28 ng/mL
- concentration at 8 h ([1]; time 8 h, Dog 10): 1.47 ng/mL
- concentration at 8 h ([1]; time 8 h, Dog 12): 4.62 ng/mL
- concentration at 8 h ([1]; time 8 h, Mean): 3.05 ng/mL
- absorption ([1]; oral administration in dogs, compared with ARI-143): absorbed much more efficiently than ARI-143
- anti-tumor efficacy (TGI) comparison [2]: better efficacy than ARI-160
- TGI ([2]; study day 6): −0.01%
- TGI ([2]; study day 10): 2.92%
- TGI ([2]; study day 13): −1.75%
- TGI ([2]; study day 17): 17.21%
- TGI ([2]; study day 20): 38.27%
- TGI ([2]; study day 24): 44.41%
- TGI ([2]; study day 27): 42.16%
- TGI ([2]; study day 31): 39.97%
